According to patent publication US20240099989A1, “AGENT FOR PREVENTING OR IMPROVING PERIPHERAL NEUROPATHY” (KINKI UNIVERSITY, priority 2021, published 2024):

test system: Peripheral Neuropathy in a Mouse Caused by Paclitaxel; assay type: in vivo, Balb/c mice; details: 6 mg/kg paclitaxel + 100 mg/kg orally daily from Day 6 (therapy); from Day 12 onwards
Source text: (§1) Six to seven-week-old female Balb/c mice were used for the tests. All the mice were acclimated for seven days after arrival. Then, the mice were grouped into the following four groups: a control group, a group receiving paclitaxel, a group receiving xylitol, and a group receiving paclitaxel and xylitol (a group receiving paclitaxel+xylitol). Each group consisted of five mice.
On Day 8 of acclimation, the mice in the group receiving paclitaxel and the group receiving paclitaxel+xylitol were intraperitoneally administered with paclitaxel at a dose of 6 mg/kg. This day was designated as Day 0 of administration. Thereafter, these mice were intraperitoneally administered with paclitaxel at a daily dose of 6 mg/kg on Day 7 and Day 14.
The mice in the group receiving xylitol and the group receiving paclitaxel+xylitol were orally administered with xylitol at a dose of 5 mg/kg daily from Day 0.
The mice in the four groups described in (4) of the present example (Example 1) were placed in a cage, and the avoidance response frequency (score) was measured by pressing a filament with a bending force of 0.16 g against the back of the hind paw.
as §1, with “tests as with Example 1.” for “tests.”, “mice. […]” for “mice.”
For the mice in the four groups described in (6) of the present example (Example 2), the avoidance response frequency (score) was measured by pressing a filament with a bending force of 0.16 g against the back of the hind paw. […]
The mice in the four groups described in (4) of the present example (Example 3) were placed in a cage, and the avoidance response frequency (score) was measured by pressing a filament with a bending force of 0.16 g against the back of the hind paw. […]

Structure (SMILES) | avoidance response score
OC[C@@H](O)[C@H](O)CO [D-threitol] | maintained a score clearly lower than that of the group receiving paclitaxel
OC[C@H](O)[C@H](O)[C@H](O)[C@@H](O)CO [L-talitol] | maintained a score clearly lower than that of the group receiving paclitaxel
OC[C@@H](O)[C@H](O)[C@@H](O)CO [xylitol] | maintained a score clearly lower than that of the group receiving paclitaxel
